Measurements: US20140303092A1 (CHIMERIX, INC., priority 2011, published 2014)

Key:
AdV = assay: In vitro antiviral activity in cell culture, AdV; format: cell-based; conditions: unidentified adenovirus
[1] = set-up: species or system human; conditions: in vivo
From the text: Plasma samples were collected during the study to assess weekly trough concentrations of HDP-CDV and CDV. […] There was no evidence for increasing weekly trough CDV plasma concentrations; therefore, plasma concentrations are not presented in this document.

## CCCCCCCCCCCCCCCCOCCCOP(=O)(O)COC(CO)Cn1ccc(N)nc1=O (centres unmarked) [HDP-CDV]
AdV
  EC50: 20 nM
[1]
  weekly trough HDP-CDV concentrations: near or below the lower limit of quantification
